Like-named read-outs stand apart in the source and are kept apart here.
Key:
[1] = Metabolic stability in human liver microsomes; format: in vitro ADME; settings: human liver microsomes 1.0 mg/mL, compound 1 μM, NADPH, first number of HLM/MLM cell
Excerpt: (§1) Metabolic Stability in Liver Microsomes
(§2) The purpose of this experiment is to measure the metabolic half-life of NCEs in sub-cellular fractions such as human liver microsomes (HLM) or mouse liver microsomes (MLM). This provides an in vitro means to calculate intrinsic hepatic clearance, and to support the prediction of human pharmacokinetics. This approach has been successfully utilized at early phase of drug discovery projects, to provide SAR input for reducing metabolic instability and for predicting in vivo hepatic clearance.
(§3) Procedure: Potassium phosphate buffer (66.7 mM, pH 7.4) containing liver microsomes (mouse and human) (1.0 mg/mL) was pre-incubated separately with compound (1 μM) and positive control (verapamil, 1 μM) in a 37° C. water bath for 5 min. The reactions were initiated by adding 20 μL of 10 mM NADPH. Reactions without NADPH (0 and 30 min) were also incubated to rule out non-NADPH metabolism or chemical instability in the incubation buffer. All reactions were terminated using 200 μL of ice-cold acetonitrile containing internal standard at 0, 5, 15 and 30 min. The vials were centrifuged at 3000 rpm for 15 min. The supernatants thus obtained were analyzed on LC-MS/MS to monitor the disappearance of test compound.

PD-1/PD-L1 interaction = molecular target: T1, PD-1/PD-L1 interaction (Homo sapiens, UniProt Q9NZQ7); experiment: PD-1/PD-L1 HTRF binding assay (CisBio kit); settings: HTRF PD1/PD-L1 inhibition assay
T1 construct: purchased CisBio 63ADK000CPAPEG
How it was run: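 HTRF kit assay: compound was preincubated 15 min with tagged PD-L1 and PD-1 proteins, then Eu-cryptate and XL665 anti-tag antibodies were added for 1 h at room temperature. Readout was the 665/620 nm ratio ×10^4. IC50 was binned as A <100 nM, B 100–500 nM, C >500 nM.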

[2] = Brain exposure study in mice by IV route; format: in vivo; settings: male, Balb/c, mouse; for Kp at 0.5 h: brain/plasma, read-out: Brain/Plasma ratio
Excerpt: Institutional Animal Ethical Committee (IAEC) of Jubilant Biosys (IAEC/JDC/2019/188R (for Mice) and IAEC/JDC/2019/189R (for Rat) nominated by CPCSEA (Committee for the Purpose of Control and Supervision of Experiments on Animals) approved the mice and rat pharmacokinetic experiments. Male Balb/c mice (˜6-8 weeks old with body weight range of 22-25 g) and male SD rats (6-8 weeks old with body weight range of 200-250 g) were procured from Vivo Biotech, Hyderabad, India. Animals were quarantined in Jubilant Biosys Animal House for a period of 7 days with a 12:12 h light: dark cycles, and prior to the study the animals were stratified as per body weight.
Procedure for Mice: Intravenous pharmacokinetics study was done at doses of 5, 10 mg/kg respectively at dose volume 5 mL/kg for IV route. Sparse sampling was done and at each time point three mice were used for blood sampling (˜100 μL) were collected from retro-orbital plexus at 0.083 (Only for IV) and 24 h. Blood samples collected in tubes containing K2 EDTA as anticoagulant and centrifuged for 5 min at 10,000 rpm in a refrigerated centrifuge (Biofuge, Heraeus, Germany) maintained at 4° C. for plasma separation. Group I (IV) received compound by intravenously by tail vein at […] in solution formulation. Blood concentration-time data of compound was analyzed by non-compartmental method using Phoenix WinNonlin Version 8.1.
Brain Exposure Study in Mice
The mice were placed in isoflurane anesthesia chamber; following complete anesthesia (3-5% isoflurane) blood sample (0.5 mL) was collected from retro-orbital plexus using mice capillary.
The mice were sacrificed by cervical dislocation. The dorsal surface of the skull was peeled away from the brain using bone cutter, dura matter was gently removed from surface of brain with help of forceps. Brain was gently taken out away from the head and placed in PBS buffer to remove blood. Brain was placed on blotting paper to remove the blood spots and transferred in pre-labelled tube. The isolated brain was weighed and homogenised using 5× volume of phosphate buffer saline (pH-7.4). During homogenization the brain homogenate was kept in ice till sample processing. The homogenate was processed by specified extraction process and analyzed by LC-MS/MS.
Evaluation of Brain Exposure Data by IV Route

[3] = Metabolic stability in mouse liver microsomes; format: in vitro ADME; settings: mouse liver microsomes 1.0 mg/mL, compound 1 μM, NADPH, second number of HLM/MLM cell
Excerpt: as §1, §2, §3

T1 sequence (Q9NZQ7 19-238 limits assumed): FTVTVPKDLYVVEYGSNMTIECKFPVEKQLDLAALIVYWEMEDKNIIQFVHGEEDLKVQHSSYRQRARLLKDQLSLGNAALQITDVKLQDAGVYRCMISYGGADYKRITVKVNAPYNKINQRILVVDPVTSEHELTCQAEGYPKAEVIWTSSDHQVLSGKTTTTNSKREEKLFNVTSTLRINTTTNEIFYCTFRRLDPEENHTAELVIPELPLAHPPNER

SMILES | HLM % remaining @ 30 min [1] | IC50 (PD-1/PD-L1 interaction) | concentration at 0.5 h ([2]; brain, 10 mg/kg, 10 mpk, read-out: Brain (ng/g) Mean) | Kp at 0.5 h ([2]; 10 mg/kg, 10 mpk) | concentration at 0.5 h ([2]; plasma, 10 mg/kg, 10 mpk, read-out: Plasma (ng/mL) Mean) | MLM % remaining @ 30 min [3] | concentration at 0.5 h ([2]; brain, 5 mg/kg, 5 mpk, read-out: Brain (ng/g) Mean) | Kp at 0.5 h ([2]; 5 mg/kg, 5 mpk) | concentration at 0.5 h ([2]; plasma, 5 mg/kg, 5 mpk, read-out: Plasma (ng/mL) Mean)
Cc1c(COc2cc(OCCF)c(CN3CCCC[C@H]3CO)c3c2CCC3)cccc1-c1ccccc1 [Example 27, (S)-(1-((5-(2-fluoroethoxy)-7-((2-methyl-[1,1′-biphenyl]-3-yl)methoxy)-2,3-dihydro-1H-inden-4-yl)methyl)piperidin-2-yl)methanol] | 91% | < 100 nM | 11600 ng/g | 12.2 | 949 ng/mL | 84% |  |  | 
Cc1c(COc2cc(OCCCCF)c(CN3CCCC[C@H]3CO)c3c2CCC3)cccc1-c1ccccc1 [Example 31, (S)-(1-((5-(4-fluorobutoxy)-7-((2-methyl-[1,1′-biphenyl]-3-yl)methoxy)-2,3-dihydro-1H-inden-4-yl)methyl)piperidin-2-yl)methanol] | 65% | < 100 nM |  |  |  | 79% | 2450 ng/g | 4.9 | 501 ng/mL
